Data published in patent US20040002447A1, “Induction of insulin expression” (REGENTS OF THE UNIVERSITY OF CALIFORNIA, priority 2002, published 2004).

Columns and labels:
[1] = system: somatostatin gene expression in TRM-6/PDX-1 cells; experiment: Somatostatin mRNA expression by RT-PCR in monolayer TRM-6/PDX-1 cells; type: cell-based, human; details: approximately 24 hours; for somatastatin mRNA expression (effect in words): TRM-6 cells expressing PDX-1, monolayer cultures
Experimental: The cells were incubated with the inhibitor for approximately 24 hours and then expression of somatastatin expression was measured with RT-PCR. As little as 66 nM TSA lead to an increase in somatastatin induction, with a maximal induction at 6.6. μM of TSA.

[2] = system: insulin gene expression in TRM-6/PDX-1/NeuroD1 cells; experiment: Insulin mRNA expression by RT-PCR in monolayer TRM-6/PDX-1/NeuroD1 cells; type: cell-based, human
Experimental: FIG. 1 illustrates induction of insulin expression resulting from treatment with trichostatin A (TSA). Insulin mRNA was analyzed by RT-PCR. RT-PCR for the housekeeping gene porphobilinogen deaminase was performed to ensure that equal amounts of cDNA were used. The experiment has been repeated three times and the figure shown here is representative.
Monolayer cultures of TRM-6/PDX-1 also expressing the transcription factor NeuroD 1 (BETA2) express low levels of insulin gene expression.

[3] = system: insulin promoter (CAT reporter) in HeLa cells; experiment: Insulin promoter CAT reporter activity in HeLa cells transformed with PDX-1; type: cell-based; details: HeLa cells transformed with PDX-1 and insulin promoter-CAT plasmid (FIG. 2)
Experimental: FIG. 2 is a bar graph illustrating expression of an insulin promoter in HeLa cells transformed with PDX-1. The graph illustrates differences in expression from the insulin promoter in the presence or absence of the histone deacetylase inhibitor TSA. Insulin promoter activity was determined based on expression of chloramphenicol acetyl transferase (CAT) reporter activity.
In addition, expression of an insulin promoter in HeLa cells was tested for the effect of the histone deacetylase inhibitor TSA on insulin expression. HeLa cells were transformed with PDX-1 and a plasmid comprising a portion of the insulin promoter operably linked to the chloramphenicol acetyl transferase (CAT) reporter gene. The effect of TSA and PDX-1 on insulin expression was then tested. As FIG. 2 illustrates, cells contacted with TSA had approximately 14 times the expression of cells not contacted with TSA.

SMILES: CC(/C=C/C(=O)NO)=C\[C@@H](C)C(=O)c1ccc(N(C)C)cc1 [TSA, trichostatin A]
- concentration giving maximal somatastatin induction ([1]; TRM-6/PDX-1 monolayer): 6.6 µM
- lowest TSA concentration leading to an increase in somatastatin induction ([1]; TRM-6/PDX-1 monolayer): 66 nM
- somatastatin mRNA expression (effect in words) [1]: bypassed the need for cell-cell contact to achieve high levels of somatostatin gene expression
- somatastatin mRNA expression (effect in words) ([1]; listed as trichostatin A): induced somatastatin mRNA expression
- insulin expression (effect in words) ([2]; 3.3 μM for 24 hours, TRM-6/PDX-1/NeuroD1 monolayer, RT-PCR (FIG. 1)): greatly increases insulin expression
- insulin gene expression in TRM-6 cells (summary statement) ([2]; TRM-6 cells): induced insulin gene expression
- insulin promoter expression relative to cells not contacted with TSA [3]: approximately 14 times
